Format in all cases: biochemical
Test [1] concerns the target human stromelysin (Sln) (Homo sapiens, UniProt P08254). In words: In vitro MMP inhibition assay (hydrolysis of fluorogenic MCA peptide substrate), stromelysin. The settings on record: Table 1; Ki,app; MCA peptide substrate 10 μM, 37° C., pH 7.5, 2% DMSO; read-out: Sin Ki. The procedure:
The catalytic domain of human stromelysin (Sln) was obtained by expression and purification of a C-terminally truncated prostromelysin-1 from E. coli host BL21 (see Marcy et al. Biochem., 1991, 30, 6476). The subsequent activation of the mature form (Sln) was completed with 2 mM APMA for 1 hour at 37° C., followed by separation using a sizing column.
(§1) Assays were performed in assay buffer (50 mM Tricine pH 7.5, 200 mM sodium chloride, 10 mM calcium chloride, 0.5 mM zinc acetate containing 2% dimethyl sulfoxide (DMSO)) once the substrate and inhibitor were diluted into it. Stock solutions of inhibitors were prepared in 100% DMSO. Stock solutions of the substrate were prepared in 100% DMSO at a concentration of 6 mM.
(§2) The assay method was based on the hydrolysis of MCA-Pro-Leu-Gly-Leu-DPA-Ala-Arg-NH2 (American Peptide Co.) at 37° C. (see Knight, C. G. et al., FEBS, 1992, 296, 263-266). The fluorescence changes were monitored with a Perkin-Elmer LS-50B fluorimeter using an excitation wavelength of 328 nm and an emission wavelength of 393 nm. The substrate concentration used in the assays was 10 μM. The inhibitor was diluted into the assays from a solution in 100% DMSO, and controls substituted an equal volume of DMSO so that the final DMSO concentration from inhibitor and substrate dilution in all assays was 2%. […] Proper determination of steady-state rates of substrate cleavage required assay lengths of 60 minutes to allow for complete equilibration of the enzyme-inhibitor complex.
(§3) The Km for the MCA peptide substrate with the matrix metalloproteinases is quite high and exceeds its solubility under assay conditions. Consequently, the apparent Ki (Ki,app) was determined to describe the strength of inhibition. However, in this case, Ki,app would be essentially equal to Ki since [S]<<Km. For the determination of Ki,app, the concentration of the inhibitor was varied at a constant and low concentration of substrate and the steady-state rates of fluorescence change determined. In most cases absorptive quench due to the presence of ligand was not observed. For slow-binding inhibitors, onset of inhibition curves were collected for at least 45 minutes so that equilibrium was established. Steady-state rates of fluorescence change were obtained by fitting a curve to an equation for a single exponential decay containing a linear phase. The fitted value of the linear phase was taken as the steady-state rate. The steady-state rates were fitted to the Michaelis equation describing competitive inhibition by non-linear methods. Data resulting from tight-binding inhibition was analyzed, and Ki,app determined by fitting the data to the tight-binding equation of Morrison (Biochem. Biophys. Acta, vol. 185, pp. 269-286 (1969)) by non-linear methods.
(§4) All Ki values are in nM units.

The target in test [2] is T1, human collagenase-1 (HFC) (Homo sapiens, UniProt P03956).
T1 sequence (P03956 100-269 limits assumed): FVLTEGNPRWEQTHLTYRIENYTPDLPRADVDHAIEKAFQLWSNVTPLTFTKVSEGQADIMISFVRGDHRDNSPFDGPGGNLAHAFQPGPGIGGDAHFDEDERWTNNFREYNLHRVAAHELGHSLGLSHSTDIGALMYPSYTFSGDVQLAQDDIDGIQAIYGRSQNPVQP
The test is described as follows: In vitro MMP inhibition assay (hydrolysis of fluorogenic MCA peptide substrate), fibroblast collagenase-1. The following applies: Table 1; Ki,app; MCA peptide substrate 10 μM, 37° C., pH 7.5, 2% DMSO. As to the method: The catalytic domain of human collagenase-1 was expressed as a fusion protein with ubiquitin in E. coli (see Gehring, E. R., J Biol. Chem., 1995, 270, 22507). After purification of the fusion protein, the fibroblast collagenase-1 catalytic domain (HFC) was released either by treatment with purified, active stromelysin-1 (1:50 wlw ratio), which generated nearly 100% N-terminal Phe1, or by autoprocessing the concentrated collagenase-1 fusion and then incubating at 37° C. for 1 hour. Final purification was completed using zinc chelate chromatography.
as §1, §2, §3, §4

The target of test [3] is human progelatinase A (GelA) (Homo sapiens, UniProt P08253). The test is described as follows: In vitro MMP inhibition assay (hydrolysis of fluorogenic MCA peptide substrate), gelatinase A. The following applies: Table 1; Ki,app; MCA peptide substrate 10 μM, 37° C., pH 7.5, 2% DMSO; read-out: Gel A. The procedure:
The catalytic and fibronectin-like portion of human progelatinase A (GelA) was expressed as a fusion protein with ubiquitin in E. Coli. Assays were carried out on autocatalytically activated material.
as §1, §2, §3, §4

Test [4] addresses T2, human collagenase-3 (Coll3) (Homo sapiens, UniProt P45452).
T2 construct: catalytic domain liberated with APMA
The test is described as follows: In vitro MMP inhibition assay (hydrolysis of fluorogenic MCA peptide substrate), collagenase-3. The following applies: Table 1; Ki,app; MCA peptide substrate 10 μM, 37° C., pH 7.5, 2% DMSO. As to the method:
The propeptide and catalytic domain of human collagenase-3 (Coll3) was expressed in E. coli as an N-terminal fusion protein with ubiquitin. After purification of the fusion from inclusion bodies, the catalytic domain was liberated by treatment with 2 mM APMA at room temperature overnight. Final purification was completed using copper chelate chromatography.
as §1, §2, §3, §4

Molecules are shown by their SMILES.

human stromelysin (Sln), sequence (P08254 100-272 limits assumed): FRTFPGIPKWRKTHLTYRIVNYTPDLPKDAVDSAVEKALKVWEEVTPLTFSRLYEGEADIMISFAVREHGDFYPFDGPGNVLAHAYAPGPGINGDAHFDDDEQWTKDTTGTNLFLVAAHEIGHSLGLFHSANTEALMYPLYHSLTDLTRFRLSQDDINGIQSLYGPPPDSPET
human progelatinase A (GelA), sequence (P08253 110-446 limits assumed): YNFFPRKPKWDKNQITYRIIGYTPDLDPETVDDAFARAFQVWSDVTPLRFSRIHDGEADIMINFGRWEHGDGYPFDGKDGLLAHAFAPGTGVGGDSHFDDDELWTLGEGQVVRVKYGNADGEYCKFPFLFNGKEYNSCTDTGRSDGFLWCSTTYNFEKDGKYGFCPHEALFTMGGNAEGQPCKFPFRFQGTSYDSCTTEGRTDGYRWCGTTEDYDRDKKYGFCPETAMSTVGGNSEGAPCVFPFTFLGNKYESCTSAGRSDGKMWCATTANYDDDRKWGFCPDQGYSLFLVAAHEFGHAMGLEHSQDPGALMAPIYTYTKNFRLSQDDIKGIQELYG

Consider `CC(C)(C)OC(=O)CSC(C)(C)[C@@H](NS(=O)(=O)c1ccc(Oc2ccc(F)cc2)cc1)C(=O)NO` [Example 9j, 2(S)--N-hydroxy-3-methyl-3-(t-butoxycarbonyl)methylsulfanyl-2-[(4-(4-fluorophenoxy)benzenesulfonyl)amino]butanamide], for which the Ki in test [1] worked out at 1.6 nM; in test [2], 33 nM; in test [3] it was 0.048 nM; in test [4] it was 0.091 nM.
With `Cc1cc(CSC(C)(C)[C@@H](NS(=O)(=O)c2ccc(Sc3ccncc3)cc2)C(=O)O)no1` [Example 4c, S--[(5-Methylisoxazol-3-yl)methyl]--N--[4(pyrid-4-yl)sulfanylbenzenesulfonyl]-D-penicillamine], the Ki is 97000 nM in test [1], 890 nM in test [3] and 7000 nM in test [4].
`CC(C)([C@@H](NS(=O)(=O)c1ccc(Oc2ccc(Br)cc2)cc1)C(=O)NO)[S+]([O-])Cc1ccccn1` (mixture of isomers) [Example 11, 2(S), S(R/S)--N-hydroxy-3-methyl-3-(pyrid-2-yl) methylsulfinyl-2-[(4-(4-bromophenoxy)benzenesulfonyl)amino]butanamide]: the Ki in test [1] was found to be 1 nM; in test [2], 24 nM; in test [3], 0.049 nM; in test [4] it was 0.028 nM.
As for `CC(C)(SCc1ccccn1)[C@@H](NS(=O)(=O)c1ccc(Oc2ccc(F)cc2)cc1)C(=O)O` [Example 3c, N-[4-(4-Fluorophenoxy)benzenesulfonyl]--S--[(pyrid-2-yl)methyl]-D-penicillamine], the values for the Ki in test [1], in test [3] and in test [4] were 2550 nM, 44 nM and 110 nM, respectively.
With `CSC(C)(C)[C@@H](NS(=O)(=O)c1ccc(Oc2ccccc2)cc1)C(=O)NO` [Example 9a, 2(S)--N--Hydroxy-3-methyl-3-methylsulfanyl-2-[(4-phenoxybenzenesulfonyl)amino]butanamide], the Ki in test [1] is 2.2 nM; in test [3], 0.069 nM; in test [4] it was 0.067 nM.
As for `Cc1cc(CSC(C)(C)[C@@H](NS(=O)(=O)c2ccc(Oc3ccc(F)cc3)cc2)C(=O)O)no1` [Example 3l, N-[4-(4-Fluorophenoxy)benzenesulfonyl]--S--[(5-methylisoxazol-3-yl)methyl]-D-penicillamine], the Ki in test [1] came to 5100 nM; in test [3], 35.3 nM; in test [4], 248 nM.
For `CC(C)(SCc1ccccn1)[C@@H](NS(=O)(=O)c1ccc(Oc2ccc(C#N)cc2)cc1)C(=O)O` [Example 3h, N-[4-(4-Cyanophenoxy)benzenesulfonyl]--S--[(pyrid-2-yl)methyl]-D-penicillamine] the same measures were 8200 nM, 73 nM and 258 nM.
`CC(C)(C)[C@@H](NS(=O)(=O)c1ccc(Oc2ccc(F)cc2)cc1)C(=O)O` [Example 3q, N-[4-(4-Fluorophenoxy)benzenesulfonyl]-D-tert-leucine]: the Ki in test [1] is 14000 nM; in test [3], 150 nM; in test [4] it was 1180 nM.
Regarding `CC(C)(SCc1ccccn1)[C@@H](NS(=O)(=O)c1ccc(Oc2ccc(F)cc2)cc1)C(=O)NO` [Example 9h, 2(S)--N-hydroxy-3-methyl-3-(pyrid-2-yl)methylsulfanyl-2-[(4-(4-fluorophenoxy)benzenesulfonyl)amino]butanamide], the Ki in test [1] worked out at 0.84 nM; in test [2], 17 nM; in test [3], 0.031 nM; in test [4], 0.057 nM.
As for `CC(C)(SCc1ccccc1)[C@@H](NS(=O)(=O)c1ccc(Oc2ccccc2)cc1)C(=O)O` [Example 3m, S-Benzyl--N--[4-phenoxybenzenesulfonyl]-D-penicillamine], the Ki in test [1] amounted to 1000 nM; in test [3] it was 46 nM; in test [4], 907 nM.
Take `CC(C)(SCc1ccccn1)[C@@H](NS(=O)(=O)c1ccc(Oc2ccc(I)cc2)cc1)C(=O)O` [Example 3i, N-[4-(4-Iodophenoxy)benzenesulfonyl]--S--[(pyrid-2-yl)methyl]-D-penicillamine]: the Ki was 1180 nM in test [1], 3.3 nM in test [3] and 196 nM in test [4].
As to `CSC(C)(C)[C@@H](NS(=O)(=O)c1ccc(Oc2ccc(Cl)cc2)cc1)C(=O)O` [Example 6b, S-Methyl--N--[4-(4-chlorophenoxy)benzenesulfonyl]-D-penicillamine], the Ki was determined as 17000 nM in test [1], 215 nM in test [3] and 696 nM in test [4].
For the compound `Cc1ccc(Oc2ccc(S(=O)(=O)N[C@@H](C(=O)O)C(C)(C)SCc3ccccn3)cc2)cc1` [Example 3g, N-[4-(4-Methylphenoxy)benzenesulfonyl]--S--[(pyrid-2-yl)methyl]-D-penicillamine], the Ki in test [1] amounted to 1310 nM; in test [3] it was 10 nM; in test [4] it was 117 nM.
In the same order, the values of `CC(C)(SCc1cccnc1)[C@@H](NS(=O)(=O)c1ccc(Oc2ccc(F)cc2)cc1)C(=O)O` [Example 3e, N-[4-(4-Fluorophenoxy)benzenesulfonyl]--S--[(pyrid-3-yl)methyl]-D-penicillamine] are 6900 nM, 517 nM and 1100 nM.
As to `CC(C)(SCc1ccccc1)[C@@H](NS(=O)(=O)c1ccc(Oc2ccncc2)cc1)C(=O)O` [Example 4a, S-Benzyl--N--[4-(pyrid-4-yl)oxybenzenesulfonyl]-D-penicillamine], the Ki in test [1] amounted to 7700 nM; in test [3], 193 nM; in test [4] it was 360 nM.
In the case of `CC(C)(SCc1ccncc1)[C@@H](NS(=O)(=O)c1ccc(Oc2ccc(F)cc2)cc1)C(=O)O` [Example 3f, N-[4-(4-Fluorophenoxy)benzenesulfonyl]--S--[(pyrid-4-yl)methyl]-D-penicillamine], the figures for the Ki in test [1], in test [3] and in test [4] were 6300 nM, 311 nM and 829 nM, respectively.
On to `CC(C)(SCc1ccccn1)[C@@H](NS(=O)(=O)c1ccc(Oc2ccc(-c3ccoc3)cc2)cc1)C(=O)O` [Example 4e, N-[4-(4-(Furan-3-yl)phenoxy)benzenesulfonyl]--S--[(pyrid-2-yl)methyl]-D-penicillamine], for which the Ki in test [1] was found to be 680 nM; in test [3], 7.1 nM; in test [4], 153 nM.
On to `CC(C)(SCc1nccn1Cc1ccccc1)[C@@H](NS(=O)(=O)c1ccc(Oc2ccc(Br)cc2)cc1)C(=O)O` [Example 3b, N-[4-(4-Bromophenoxy)benzenesulfonyl]--S--[(1-benzyl-1H-imidazol-2-yl)methyl]-D-penicillamine], for which the Ki in test [1] was found to be 558 nM; in test [3], 1.8 nM; in test [4], 108 nM.
With `Cc1cc(CSC(C)(C)[C@@H](NS(=O)(=O)c2ccc(Oc3ccc(Br)cc3)cc2)C(=O)O)no1` [Example 3k, N-[4-(4-Bromophenoxy)benzenesulfonyl]--S--[(5-methylisoxazol-3-yl)-methyl]-D-penicillamine], the Ki in test [1] is 2600 nM; in test [3], 4.2 nM; in test [4], 209 nM.

Values taken from US5985900A, “Metalloproteinase inhibitors, pharmaceutical compositions containing them and their pharmaceutical uses” (Agouron Pharmaceuticals, Inc., priority 1998, dated 1999).
